How the values were obtained:
[1] = test system: NIH 3T3 murine fibroblasts; test: Post-rehydration plasma membrane integrity (SYTO 13/ethidium bromide dual fluorescent assay) of dried cells; format: cell-based; conditions: for moisture content above which membrane integrity remained relatively stable: hypertonic (528 mOsm/kg) 0.2 M trehalose
Experimental: (§1) NIH 3T3 murine fibroblasts were cultured in Dulbecco's Modified Eagle's medium (DMEM) supplemented with 10% v/v bovine calf serum and 1% v/v penicillin-streptomycin at 37° C. with 10% CO2 in air. At 70% confluence, the cells were trypsinized and resuspended in culture medium. 20 microliter droplets of cells were plated onto sterile 12 mm circular glass cover slips and cultured for 30 min at 37° C. to allow for loose attachment of the fibroblasts to the cover slip. In some cases, poly-L-lysine-coated cover slips were used for attaching the cells to the cover slips. The cover slips were precoated with poly-L-lysine to assure uniform surface characteristics as follows. The cover slips were first prepared by soaking them in aqua regia overnight. The next day, the cover slips were rinsed in 50 mM NaHCO3, then in de-ionized H2O. The cover slips were then baked for at least 3 h at 150° C. The cover slips were removed from the oven and floated in a 1 mg/ml solution of poly-L-lysine for 5 min on each side, then rinsed in de-ionized H2O and air-dried.
(§2) Trehalose was inserted into the fibroblasts as follows. The fibroblasts were washed with 30 microliters of a HEPES-buffered saline solution supplemented with EDTA, followed by three washes with 30 microliters of RPMI-1640. The cells were then porated by exposure to an RPMI-1640 solution containing 25 micrograms/ml of a pore-forming protein, H5 alpha-hemolysin, for 10 min. Intracellular trehalose was inserted into the porated cells by exposure to either a hypertonic (RPMI-1640+0.2 M trehalose; 528 mOsm/kg) or an isotonic (RPMI-1640 diluted in H2O+0.2 M trehalose; 310 mOsm/kg) trehalose solution for 45 min. The pores created by H5 alpha-hemolysin in the fibroblasts were closed by adding 25 micromolar ZnSO4 to the solution. The fibroblasts were then washed in an (H5-free) hypertonic or an isotonic trehalose solution. The osmolality of the solution was measured using a freezing-point depression osmometer. All experimental manipulations were performed at room temperature, unless otherwise indicated.
Techniques used in these experiments for drying cells included evaporative drying (using natural convection) or forced laminar convective flow. The natural convection protocol is generally as follows. The approximate pre-desiccation dimensions of the 20 microliter droplet of media containing the fibroblasts on the glass cover slip was 6 mm diameter×1 mm height. The cover slips were placed in airtight acrylic boxes containing CaSO4/CoCl2 desiccant. The cover slips were stored there for different lengths of time, typically ranging from a few hours to several weeks. […] The moisture content of each droplet was determined gravimetrically from the difference in the droplet weight before and after drying, and was expressed as a percentage of anhydrous dry weight. Anhydrous dry weights were determined by baking a representative droplet overnight at 110° C. and measuring the droplet weights. […] The cells within the droplet were then cultured overnight (˜18 h) and assessed for viability.
The integrity of the plasma membrane of the cells after rehydration was determined using a dual fluorescent assay as follows. […] The cells were imaged on a fluorescent microscope and analyzed. The membrane integrity (MI) for the cells was calculated as the percentage of SYTO® 13-positive cells in the sample. […]

[2] = test system: NIH 3T3 murine fibroblasts; test: Post-rehydration cell growth (percentage of viable cells versus undried controls after overnight culture); format: cell-based
Experimental: as §1
as §2, with “All experimental manipulations were performed at room temperature, unless otherwise indicated.” left out
Techniques used in these experiments for drying cells included evaporative drying (using natural convection) or forced laminar convective flow. […] The moisture content of each droplet was determined gravimetrically from the difference in the droplet weight before and after drying, and was expressed as a percentage of anhydrous dry weight. Anhydrous dry weights were determined by baking a representative droplet overnight at 110° C. and measuring the droplet weights. […] The cells within the droplet were then cultured overnight (˜18 h) and assessed for viability.
Following overnight culture, the percentage of viable cells in droplets that were dried and then recovered, compared to undried controls, was used as a measure of cell growth. Viable fibroblasts could be readily identified through their flattening, migratory, and mitotic behavior. […]

3T3 fibroblasts = test: Long-term stability of membrane integrity during dried storage (exponential decay curve fit); format: cell-based, murine; conditions: 0.4 M intracellular trehalose
Experimental: The integrity of the plasma membrane of the cells after rehydration was determined using a dual fluorescent assay as follows. SYTO® 13 (Molecular Probes, Inc. Eugene, Oreg.), a permeant live cell nucleic acid dye (25 micromolar), and ethidium bromide (EB; 25 micromolar) were used to differentially stain the cells. The cells were imaged on a fluorescent microscope and analyzed. The membrane integrity (MI) for the cells was calculated as the percentage of SYTO® 13-positive cells in the sample.
The membrane integrity of 3T3 fibroblasts loaded with 0.4 M trehalose intracellularly was measured for periods of time extending out to several weeks (FIG. 5). The fibroblasts were prepared using methods similar to those described in Example 1. The data in FIG. 5 represents experiments where cells were removed from storage, rehydrated, analyzed, and then discarded. The cells were stored at temperatures of −80° C., −20° C., 4° C., 25° C., and 37° C., over CaSO4 desiccant (about 5% relative humidity). The 0.4 M trehalose condition was chosen in this example since previous experiments had shown that cells containing 0.4 M trehalose had high MI values after overnight storage.
Thus, the rate at which the membrane integrity decays appears to be a function of the storage temperature.

[3] = Glass transition temperature of extracellular trehalose solution (modulated temperature DSC); format: physicochemical; conditions: after 18 h of dried storage at 4° C.
Experimental: Thus, the extracellular trehalose solution had vitrified by 18 h. After vitrification (glass formation) of the solution containing the cells had occurred, the cells were able to retain their plasma membrane integrities, even after days to weeks in storage at relatively cooler storage temperatures.

[4] = test system: human fibroblast cells (HFF1 cells); test: Cell viability after vacuum desiccation and rehydration on cell adhesion surfaces; format: cell-based; conditions: dried on standard tissue culture surfaces to about 20% moisture, post-rehydration on coated surface (Tissue Dried)
Experimental: In this set of experiments, human fibroblast cells (HFF1 cells) were desiccated under vacuum at room temperature on various surfaces, and in some cases, in the presence of 0.2 M extracellular trehalose. The fibroblasts were dried to about 20% moisture content. The fibroblasts were then recovered by rehydrating them, placing them into culture, and assessing their viability about 24 hours later, using techniques similar to those described in Example 1.

## OC[C@H]1O[C@H](O[C@H]2O[C@H](CO)[C@@H](O)[C@H](O)[C@H]2O)[C@H](O)[C@@H](O)[C@@H]1O [trehalose]
[1]; extracellular trehalose only
  moisture content above which membrane integrity remained relatively stable: greater than 15%
[1]; intracellular and extracellular trehalose
  moisture content above which membrane integrity remained relatively stable: greater than 10%
[1]; hypertonic solution
  membrane integrity (MI) after drying, internal plus external trehalose versus no internal trehalose: higher MI values
[1]; isotonic (310 mOsm/kg) solutions of 0.2 M trehalose
  moisture content below which gross membrane damage was observed: 5-8%
[1]; isotonic trehalose solutions, moisture contents as low as 5-8%
  intact cells (membrane integrity): about 80%
[2]; dried to about 10% moisture content, p=0.004
  percentage of cell growth, isotonic intracellular and extracellular trehalose versus isotonic extracellular trehalose only: significant improvement
[2]; hypertonic trehalose solutions, dried to about 10% moisture content
  cells viable (cell growth) following drying: Less than 20%
[2]; isotonic 0.2 M extracellular trehalose only, dried to 10% moisture content
  percentage of cell growth: less than 30%
[2]; isotonic 0.2 M intracellular and extracellular trehalose, moisture contents greater than about 10%
  cells capable of growth after recovery and overnight culture: Approximately 80%
3T3 fibroblasts; storage at 4° C. over CaSO4 desiccant
  decay time constant of membrane integrity: 54 days
3T3 fibroblasts; storage at 25° C. over CaSO4 desiccant
  decay time constant of membrane integrity: 7.5 days
3T3 fibroblasts; storage at 37° C. over CaSO4 desiccant
  decay time constant of membrane integrity: 2.0 days
3T3 fibroblasts; storage at -20° C. over CaSO4 desiccant
  decay time constant of membrane integrity: 138 days
3T3 fibroblasts; storage at -80° C. over CaSO4 desiccant
  decay time constant of membrane integrity: 147 days
[3]
  glass transition temperature of the extracellular trehalose: 5 to 10 °C

## collagen
[4]
  cell viability about 24 hours after rehydration: Increases in cell viability

## fibronectin
[4]
  cell viability about 24 hours after rehydration: Increases in cell viability

## laminin
[4]
  cell viability about 24 hours after rehydration: Increases in cell viability

Source: patent US20050277107A1, “Systems and methods for cell preservation” (priority 2002, published 2005)
